The text below walks through data of patent US10028935B2, “Stabilized multi-functional antioxidant compounds and methods of use” (XPD Holdings, LLC, priority 2012, dated 2018).

Values after ≈ are worked out from the molar mass of the structure shown. Where only a bound is given, the exact number is not on record here.

Series [1] is described as follows: Solubility in physiologic buffer (PBS, pH 7.4) by nephelometry. Format: physicochemical. As to conditions: aqueous buffer, thermodynamic from solid, phosphate buffered saline, top concentration 500 mg/mL, serial 1:2 dilutions. The method, then:
(§1) The solubility of Compound 45 and carnosine in physiologic buffer (phosphate buffered saline, pH 7.4; PBS) were determined using a BMG Labtech NEPHELOstar nephelometer (Offenburg, Germany) with Galaxy analytical software, version 4.32R2. Stock solutions of each compound were prepared initially in dimethyl sulfoxide (DMSO); Compound 45 was soluble at a concentration of 50 mM in DMSO, while carnosine was not. Subsequently, dilution series of both compounds were prepared directly in PBS (pH 7.4) for evaluation of solubility using nephlometry, with a top concentration of 500 mg/mL for each compound and serial 1:2 dilutions. A positive control compound was included to qualitatively illustrate concentration-solubility relationships using heat maps. Compound 45 was soluble in physiologic buffer at a concentration of 500 mg/mL, while carnosine was soluble only at concentrations of 250 mg/mL.

A short description of series [2]: Solubility of stock solutions in dimethyl sulfoxide (DMSO). Format: physicochemical. The conditions noted are these: organic solvent or mixture, stock solution in dimethyl sulfoxide. The method, then:
as §1

The nature of series [3]: Hydrolysis in human whole blood (disappearance of Compound 45, appearance of NACA and carnosine). Format: in vitro ADME. The conditions noted are these: 37° C. Here is the method: To determine hydrolysis of Compound 45 and appearance of NACA and carnosine in blood, samples of human whole blood from healthy donors anti-coagulated with sodium heparin were thermally equilibrated to, and maintained at 37° C. in a water bath. Compound 45 was then spiked from a single freshly prepared stock solution into blood aliquots to create separate samples of varying Compound 45 starting concentrations (135 μM, 13.5 μM, 10.9 μM [5 μg/mL], and 2.2 μM [1 μg/mL]). Immediately after spiking, tubes were mixed by very gently rocking tubes manually for 5 minutes to ensure homogeneity and remained in the 37° C. water bath until all time points were collected. […] Plasma samples were processed for quantitation of the disappearance (hydrolysis) of Compound 45 and the appearance of NACA or carnosine, as described below. […]
Samples in 96-well plates were analyzed on a Waters Acquity UPLC™ liquid chromatograph interfaced with a Thermo Scientific TSQ Vantage triple quadrupole mass spectrometer with electrospray ionization in the positive ion mode. […]
Compound 45, Carnosine and the NACA-thio-ether derivative product eluted at approximately 1.3 minutes. Compound 45 was detected by selected reaction monitoring of the mass-to-charge (m/z) 371 to 110 transition. Carnosine was detected by selected reaction monitoring of the m/z 227 to 110 transition. […]

Series [4] can be described thus: Storage stability by reversed-phase HPLC quantitation of degradation products (impurities). Format: physicochemical. The conditions noted are these: storage for 1 or 2 months at 5° C., 25° C./60% RH and 40° C./75% RH; FIGS. 1-3. The method, then:
The stability of Compound 45 and N-acetylcysteine amide (NACA) were determined using reversed-phase HPLC quantitation of the appearance of degradation products (impurities) after storage of the compounds for 1 or 2 months at 5° C., 25° C./60% relative humidity (RH), and 40° C./75% RH.
The chromatographic system used was an Agilent 1100 HPLC comprised of a degasser (model G1322A), pump (model G1311A), autosampler (model G1329A), column compartment (model G1316A), and a diode array detector (model G1315A). Agilent Chemstation software Rev. B.03.02 [341] was used to acquire and analyze all chromatographic data. […] Assay, identity, and purity of Compound 45 and NACA, and quantitation of impurities arising over time, was accomplished by a reversed-phase isocratic method using a Phenomenex Synergi Polar-RP (250×4.6 mm, […]) column at 15° C., 0.2% perchloric acid (PCA) in water and acetonitrile as mobile phase, UV detection at 210 nm, and a standard run time of 20 minutes. Standard solutions of Compound 45 and NACA were prepared in 0.2% perchloric acid to generate standard curves for quantitation of Compound 45 and NACA. Replicate samples of each analyte were collected at study initiation (baseline), after 1 month of storage under the various conditions and after 2 months of storage for quantitation of parent and impurities. […]

Take `CC(=O)N[C@@H](CSC(=O)[C@H](Cc1cnc[nH]1)NC(=O)CCN)C(N)=O` [Compound 45, (S)-S((R)-2-acetamido-3-amino-3-oxopropyl) 2-(3-aminopropanamido)-3-(1H-imidazol-5-yl)propanethioate]: the results for the solubility in series [1] and in series [2] were at least 500 mg/mL and at least 50 mM, respectively. In series [3], the “metabolism of thioester linkage in blood” value is given as “rapidly metabolized in blood”. The “extent of degradation as measured by the percent change (increase) from baseline in impurities” value in series [4] is on record as “less than the increase in impurities for NACA”.

On to `NCCC(=O)N[C@@H](Cc1cnc[nH]1)C(=O)O` [carnosine, reference compound], for which the solubility in series [1] is 250 mg/mL (≈ 1110 mM); in series [2] it was under 50 mM.

The term solubility denotes how much of the substance goes into solution per volume.
